For orientation: IC50 means the midpoint of a concentration-inhibition curve. Read a high IC50 as weaker potency. What is called melting point is the temperature of the solid-liquid transition.

Among the data in US8163750B2, “Fluorene derivatives, compositions containing the same and use thereof as inhibitors of the protein chaperone HSP 90” (Sanofi-Aventis, priority 2006, dated 2012) are IC50 and melting point values, retold here.

The target in series [1] is Hsp82 (Saccharomyces cerevisiae, UniProt P02829). Description: Hsp82 ATPase activity, pyruvate kinase/lactate dehydrogenase enzymatic coupling system. The class given is biochemical. The conditions noted are these: PK/LDH coupled kinetic method, NADH absorbance 340 nm, 1 μM Hsp82, 250 μM ATP, 37° C. The source says:
The formation of ADP due to the ATPase activity of Hsp82 was utilized for developing another method of evaluating the enzymatic activity of this enzyme by the application of an enzymatic coupling system involving pyruvate kinase (PK) and lactate dehydrogenase (LDH). In this spectrophotometric method of the kinetic type, PK catalyses the formation of ATP and pyruvate from phosphoenol-pyruvate (PEP) and ADP produced by HSP82. The pyruvate formed, a substrate of LDH, is then converted to lactate in the presence of NADH. In this case, the decrease in the concentration of NADH, measured from the decrease in absorbance at a wavelength of 340 nm, is proportional to the concentration of ADP produced by HSP82. The test products are incubated in a reaction volume of 100 μl of buffer composed of 100 mM Hepes-NaOH (pH 7.5), 5 mM MgCl2, 1 mM DTT, 150 mM KCl, 0.3 mM NADH, 2.5 mM PEP and 250 μM ATP. This mixture is preincubated at 37° C. for 30 min before adding 3.77 units of LDH and 3.77 units of PK. The reaction is initiated by adding the product to be evaluated, at various concentrations, and Hsp82, at a concentration of 1 μM. Measurement of the enzymatic activity of Hsp82 is then performed continuously in a microplate reader, at 37° C., at a wavelength of 340 nm. The initial rate of the reaction is found by measuring the gradient of the tangent at the origin of the curve that is recorded. The enzymatic activity is expressed in μM of ADP formed per minute. The effect of the various products tested is expressed as percentage inhibition of ATPase activity according to the following code: • A: IC50<1 μM • B: 1 μM<IC50<10 μM • C: 10 μM<IC50<100 μM

Chain of Hsp82 (P02829 whole entry): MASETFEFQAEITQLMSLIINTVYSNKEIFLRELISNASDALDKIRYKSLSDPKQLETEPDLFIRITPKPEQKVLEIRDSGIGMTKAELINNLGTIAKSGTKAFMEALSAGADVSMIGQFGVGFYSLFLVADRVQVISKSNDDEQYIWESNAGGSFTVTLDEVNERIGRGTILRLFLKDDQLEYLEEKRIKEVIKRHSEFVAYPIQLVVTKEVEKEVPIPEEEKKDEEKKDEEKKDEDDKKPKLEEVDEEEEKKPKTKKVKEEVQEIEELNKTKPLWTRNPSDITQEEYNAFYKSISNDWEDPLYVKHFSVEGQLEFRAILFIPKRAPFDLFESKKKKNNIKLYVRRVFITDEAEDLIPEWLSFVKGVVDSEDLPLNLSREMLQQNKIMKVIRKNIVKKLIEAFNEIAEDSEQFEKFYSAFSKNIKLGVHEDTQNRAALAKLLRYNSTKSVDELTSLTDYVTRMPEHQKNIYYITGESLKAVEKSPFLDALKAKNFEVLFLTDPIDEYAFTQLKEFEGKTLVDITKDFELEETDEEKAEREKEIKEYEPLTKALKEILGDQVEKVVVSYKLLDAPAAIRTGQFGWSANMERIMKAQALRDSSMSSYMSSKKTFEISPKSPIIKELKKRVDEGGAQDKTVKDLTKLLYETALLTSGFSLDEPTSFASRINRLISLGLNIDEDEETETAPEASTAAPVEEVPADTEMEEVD

In the case of `Nc1ncc(Cl)c(C(=O)NC2c3ccccc3-c3c(-c4ncc[nH]4)cccc32)n1` (racemic) [Example 1, [4-(1H-imidazol-2-yl)-9H-fluoren-9(R,S)-yl]-amide of 2-amino-5-chloro-pyrimidine-4-carboxylic acid], the IC50 in series [1] lay within 1000 to 10000 nM.
The compound `O=C(NC1c2ccccc2-c2c(-c3cc4ccccc4o3)cccc21)c1ccnc2[nH]ccc12` (racemic) [Example 2, [4-(benzofuran-2-yl)-9H-fluoren-9(R,S)-yl)]-amide of 1H-pyrrolo[2,3-b]pyridine-4-carboxylic acid] gave a melting point of more than 260 °C. This compound also gave an IC50 in series [1] of 1000 to 10000 nM.
In the case of `O=C(NC1c2ccccc2-c2c(-c3cnc4ccccc4c3)cccc21)c1ccnc2[nH]ccc12` (racemic) [Example 3, [4-(quinolin-3-yl)-9H-fluoren-9(R,S)-yl)]-amide of 1H-pyrrolo[2,3-b]pyridine-4-carboxylic acid], the melting point is more than 260 °C. Moreover, the IC50 in series [1] was in the range of 1000 to 10000 nM.
`O=C(NC1c2ccccc2-c2c(-c3ccc(F)nc3)cccc21)c1ccnc2[nH]ccc12` (racemic) [Example 4, [4-(6-fluoro-pyridin-3-yl)-9H-fluoren-9-(R,S)-yl]-amide of 1H-pyrrolo[2,3-b]pyridine-4-carboxylic acid] gave a melting point of more than 260 °C. For the same compound, the IC50 in series [1] was 1000 to 10000 nM.
Take `O=C(NC1c2ccccc2-c2c(-c3cc4ccccc4[nH]3)cccc21)c1ccnc2[nH]ccc12` (racemic) [Example 5, [4-(1H-indol-2-yl)-9H-fluoren-9-(R,S)-yl]-amide of 1H-pyrrolo[2,3-b]pyridine-4-carboxylic acid]: the concentration for half-maximal inhibition (IC50) in series [1] is less than 1000 nM.
The compound `O=C(NC1c2ccccc2-c2c(-c3nc4ccccc4o3)cccc21)c1ccnc2[nH]ccc12` (racemic) [Example 6, [4-(benzoxazol-2-yl)-9H-fluoren-9-(R,S)-yl]-amide of 1H-pyrrolo[2,3-b]pyridine-4-carboxylic acid] showed a melting point of more than 260 °C. Besides, the IC50 in series [1] was less than 1000 nM.
For `O=C(NC1c2ccccc2-c2c(-c3cncnc3)cccc21)c1ccnc2[nH]ccc12` (racemic) [Example 7, [4-(pyrimidin-5-yl)-9H-fluoren-9-(R,S)yl]-amide of 1H-pyrrolo[2,3-b]pyridine-4-carboxylic acid], in that order: more than 260 °C and less than 1000 nM.
For `O=C(NC1c2ccccc2-c2c(-c3ccc4ccccc4n3)cccc21)c1ccnc2[nH]ccc12` (racemic) [Example 8, [4-(quinolin-2-yl)-9H-fluoren-9-(R,S)-yl]-amide of 1H-pyrrolo[2,3-b]pyridine-4-carboxylic acid], in that order: 260 °C and 1000 to 10000 nM.
As to `O=C(NC1c2ccccc2-c2c(-c3nc4ccccn4n3)cccc21)c1ccnc2[nH]ccc12` (racemic) [Example 9, (4-[1.2.4]triazolo[1,5-a]pyridin-2-yl-9H-fluoren-9(R,S)-yl)-amide of 1H-pyrrolo[2,3-b]pyridine-4-carboxylic acid], the IC50 in series [1] was 1000 to 10000 nM.
As to `O=C(NC1c2ccccc2-c2c(C3=Nc4ccccc4OC3)cccc21)c1ccnc2[nH]ccc12` (racemic) [Example 10, [4-(1,4-benzoxazin-2H-3-yl)-9H-fluoren-9(R,S)-yl]-amide of 1H-pyrrolo[2,3-b]pyridine-4-carboxylic acid], the IC50 in series [1] is 1000 to 10000 nM.
The same measure, in the same setting: the same measure for `O=C(NC1c2ccccc2-c2c(-c3cnc4ccccc4c3)cccc21)c1ncnc2[nH]ccc12` (racemic) [Example 11, [4-(quinolin-3-yl)-9H-fluoren-9(R,S)-yl]-amide of 7H-pyrrolo[2,3-c]pyrimidine-4-carboxylic acid]: less than 1000 nM; for `O=C(NC1c2ccccc2-c2c(-c3cnc4ccccc4n3)cccc21)c1ccnc2[nH]ccc12` (racemic) [Example 12, [4-(quinoxalin-2-yl)-9H-fluoren-9(R,S)-yl]-amide of 1H-pyrrolo[2,3-b]pyridine-4-carboxylic acid]: 1000 to 10000 nM.
Regarding `O=C(NC1c2ccccc2-c2c(-c3cnc4ccccc4c3)cccc21)c1c(Br)cnc2[nH]cnc12` (racemic) [Example 13, [4-(quinolin-3-yl)-9H-fluoren-9(R,S)-yl]-amide of 6-bromo-3H-imidazo[4,5-b]pyridine-7-carboxylic acid], in series [1], the IC50 was less than 1000 nM.
Consider `O=C(NC1c2ccccc2-c2c(-c3ccc(N4CCOCC4)nc3)cccc21)c1ccnc2[nH]ccc12` (racemic) [Example 14, [4-(2-morpholino-pyridin-5-yl)-9H-fluoren-9(R,S)-yl]-amide of 1H-pyrrolo[2,3-b]pyridine-4-carboxylic acid], for which the IC50 in series [1] lay within 1000 to 10000 nM.
`Nc1ncc(Cl)c(C(=O)NC2c3ccccc3-c3c(-c4cnc5ccccc5c4)cccc32)n1` (racemic) [Example 15, [4-(quinolin-3-yl)-9H-fluoren-9(R,S)-yl]-amide of 2-amino-5-chloro-pyrimidine-4-carboxylic acid] gave an IC50 in series [1] of less than 1000 nM.
Turning to `O=C(NC1c2ccccc2-c2c(C(=O)n3ncc4ccccc43)cccc21)c1ccnc2[nH]ccc12` (racemic) [Example 16, [4-(indazole-1-carbonyl)-9H-fluoren-9(R,S)-yl]-amide of 1H-pyrrolo[2,3-b]pyridine-4-carboxylic acid], the melting point is 220 °C. Further, in series [1], the 50% inhibitory concentration (IC50) lay in the range of 1000 to 10000 nM.
`O=C(NC1c2ccccc2-c2c(-c3cnc4[nH]ccc4c3)cccc21)c1ccnc2[nH]ccc12` (racemic) [Example 17, [4-(1H-pyrrolo[2,3-b]pyridin-5-yl)-9H-fluoren-9(R,S)-yl]-amide of 1H-pyrrolo[2,3-b]pyridine-4-carboxylic acid]: in series [1], the IC50 is less than 1000 nM.
In series [1], `O=C(NC1c2ccccc2-c2c(-c3cnc4c(c3)CCCN4)cccc21)c1ccnc2[nH]ccc12` (racemic) [Example 18, [4-(5,6,7,8-tetrahydro-1,8-naphthyridin-3-yl)-9H-fluoren-9(R,S)-yl]-amide of 1H-pyrrolo[2,3-b]pyridine-4-carboxylic acid] came in with an IC50 of 1000 to 10000 nM.
Regarding `O=C(NC1c2ccccc2-c2c(-c3cn4ccccc4n3)cccc21)c1ccnc2[nH]ccc12` (racemic) [Example 19, 4-{imidazo[1,2-a]pyridin-2-yl}-9H-fluoren-9-(R,S)-yl-amide of 1H-pyrrolo[2,3-b]pyridine-4-carboxylic acid], the melting point came to 270 °C. The compound also came in with an IC50 in series [1] of less than 1000 nM.
In series [1], `O=C(NC1c2ccccc2-c2c(-c3cnc4ccccc4c3)cccc21)c1c(Br)cnc2[nH]cnc12` (single isomer, unassigned) [Example 20] gave an IC50 of 10000 to 100000 nM.
`O=C(NC1c2ccccc2-c2c(-c3cnc4ccccc4c3)cccc21)c1c(Br)cnc2[nH]cnc12` (single isomer, unassigned) [Example 21] displayed an IC50 in series [1] of less than 1000 nM.
